{"source": "patent US12030835B2", "about": "“Substituted amide compounds useful as farnesoid X receptor modulators” (BRISTOL-MYERS SQUIBB COMPANY, priority 2019, dated 2024)", "data": [{"target": "T1, human FXR (Homo sapiens, UniProt Q96RI1)", "T1 construct": "expressed in transfected cells", "T1 sequence (Q96RI1 262-486 limits assumed)": "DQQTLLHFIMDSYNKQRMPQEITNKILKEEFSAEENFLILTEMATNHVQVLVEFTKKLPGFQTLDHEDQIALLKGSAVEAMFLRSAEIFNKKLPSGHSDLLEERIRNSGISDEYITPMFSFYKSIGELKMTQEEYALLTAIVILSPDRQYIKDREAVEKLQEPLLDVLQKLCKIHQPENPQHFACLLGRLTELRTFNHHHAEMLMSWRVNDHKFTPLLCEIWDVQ", "assay": "transient human FXR/Gal4-luciferase reporter assay", "assay_type": "cell-based", "settings": "Gal4-hFXR (ligand binding domain) fusion transiently transfected in HEK293 Gal4-luciferase reporter cells; overnight incubation; response as percentage of 8 μM GW-4064 control", "experimental": "A Gal4-hFXR fusion construct reporter system was used as the primary assay to characterize compound activity. A construct including 5 copies of the Gal4 promoter response element upstream of a firefly luciferase reporter cDNA was stably expressed in HEK293 cells. This reporter cell line was maintained in Dulbecco's Modified Eagle's medium (DMEM; Gibco) supplemented with 1% penicillin-streptomycin (P/S) solution, 500 μg/ml Zeocin and 10% charcoal/dextran-treated fetal bovine serum (cs-FBS) at 37° C. in a humidified 5% CO2 atmosphere. Another plasmid was constructed in which the human cytomegalovirus promoter in the pcDNA3.1 vector directs the expression of the cDNA encoding a fusion protein comprised of the DNA binding domain from the Gal4 transcription factor fused to the ligand binding domain from human FXR.\nThe day prior to transfection, the reporter cells in culture are detached from the plate with trypsin and plated into a T75 flask at a sufficient density to achieve approximately 90% confluence the next morning. The transfection reagents are prepared by separately diluting 25 μg of the pcDNA3.1-Gal4-FXR plasmid into 1.87 mL of Opti-MEM (Thermo-Fisher), and 40 μL of Lipofectamine 2000 (Thermo-Fisher) into 1.87 mL of Opti-MEM, and then adding the diluted DNA solution into the diluted Lipofectamine 2000 solution and incubating at room temperature for 15-20 minutes. The mixture is further diluted with 10 ml of a solution comprised of DMEM, 10% cs-FBS, and 1% P/S immediately prior to transferring to the cells. The maintenance culture media is aspirated from the cells and the final transfection mixture is added before the cells are incubated overnight at 37° C. in a humidified 5% CO2 atmosphere. This protocol can be scaled up, and the transiently transfected cells can be cryopreserved in an assay-ready format.\nFor compound testing, 100 nL of the compounds (serial dilutions in DMSO) are dispensed with an Echo acoustic dispenser (Labcyte) into the wells of a Corning/Costar clear bottom 384-well white plate. The transfected cells are harvested, counted, and diluted such that 10-25,000 cells in 25 μL are plated into each well of the 384-well compound assay plate. The compound-treated cells are incubated overnight at 37° C. in a humidified 5% CO2 atmosphere. The next morning 25 μL of Steady-Glo (Promega) are added to each well of the plate, the mixture is incubated for 15 min. with shaking, and luminescence is measured on an Envision (Perkin Elmer) plate reader.", "units": {"EC50": "nM"}, "values": [{"smiles": "COC(=O)/C=C/c1cccc(N(CC23CCC(c4nc(C5CCOCC5)no4)(CC2)CC3)C(=O)C2CCCCC2)c1", "note": "[Example 43, Methyl (E)-3-(3-(N-((4-(3-(tetrahydro-2H-pyran-4-yl)-1,2,4-oxadiazol-5-yl)bicyclo[2.2.2]octan-1-yl)methyl)cyclohexanecarboxamido)phenyl)acrylate]", "EC50": 107}, {"smiles": "COC(=O)/C=C/c1cccc(N(CC23CCC(c4noc(C)n4)(CC2)CC3)C(=O)C2CCCCC2)c1", "note": "[Example 44, Methyl (E)-3-(3-(N-((4-(5-methyl-1,2,4-oxadiazol-3-yl)bicyclo[2.2.2]octan-1-yl)methyl)cyclohexanecarboxamido)phenyl)acrylate]", "EC50": 87}, {"smiles": "COC(=O)C1=Cc2cccc(N(CC34CCC(c5ccc6c(cnn6C)c5)(CC3)OC4)C(=O)C3CCCCC3)c2CC1", "note": "[Example 45, Methyl 5-(N-((1-(1-methyl-1H-indazol-5-yl)-2-oxabicyclo[2.2.2]octan-4-yl)methyl)cyclohexanecarboxamido)-3,4-dihydronaphthalene-2-carboxylate]", "EC50": 1150}, {"smiles": "CC(C)(O)C#Cc1cccc(N(CC23CCC(c4nnc(C(C)(C)C)o4)(CC2)CC3)C(=O)C23CC(F)(C2)C3)c1", "note": "[Example 48, N-((4-(5-(tert-Butyl)-1,3,4-oxadiazol-2-yl)bicyclo[2.2.2]octan-1-yl)methyl)-3-fluoro-N-(3-(3-hydroxy-3-methylbut-1-yn-1-yl)phenyl)bicyclo[1.1.1]pentane-1-carboxamide]", "EC50": 30}, {"smiles": "CC(C)(O)C#Cc1cccc(N(CC23CCC(c4noc(C(C)(F)F)n4)(CC2)CC3)C(=O)C23CC(F)(C2)C3)c1", "note": "[Example 49, N-((4-(5-(1,1-difluoroethyl)-1,2,4-oxadiazol-3-yl)bicyclo[2.2.2]octan-1-yl)methyl)-3-fluoro-N-(3-(3-hydroxy-3-methylbut-1-yn-1-yl)phenyl)bicyclo[1.1.1]pentane-1-carboxamide]", "EC50": 39}]}]}
